Laboratory results published in patent publication US7300770B2, “Detection of microbe contamination on elastomeric articles” (Kimberly-Clark Worldwide, Inc., priority 2004, dated 2007).

Experiments:
[1] = test system: E. coli; test: Cyclodextrin and Reichardt's dye coated towel exposed to E. coli
Description: A SCOTT® paper towel was first coated with hydroxypropyl-beta-cyclodextrin (from Cerestar International, Hammond, Ind., USA) in solution in water (1 gram in 20 milliliters) by dipping and air-drying at ambient temperature. After drying, the coated paper towel was treated with a solution of Reichardt's dye in isopropanol (1 weight percent) and allowed to air-dry. The dried towel was a purple/blue in color. The present inventors believe that the cyclodextrin hindered the crystallization of the dye, thus allowing a more vivid color of the dye to occur on the paper towel. This coated towel was used in a test with gram-negative bacteria (E. coli) and found to turn colorless in less than 5 seconds when an aliquot of 100 microliters of media containing 10,000 CFU per milliliter was applied to the towel. […] The inventors believe that by careful use of a coating (e.g. cyclodextrin), a monolayer coating of the dye may be formed.

[2] = test system: L. acidophilus; test: Titration of microorganisms with Reichardt's dye on cellulosic towel; settings: Lactobacillus, Gram(+), 10^7 CFU/mL, 100 microliters; 160 mg/10 mL acetonitrile

## [O-]c1c(-c2ccccc2)cc(-[n+]2c(-c3ccccc3)cc(-c3ccccc3)cc2-c2ccccc2)cc1-c1ccccc1 [Reichardt's dye, 4-(2,4,6-triphenylpyridinium-1-yl)-2,6-diphenylphenolate]
[1]; 100 microliters of media containing 10,000 CFU per milliliter
  Time to turn colorless: less than 5 seconds
[1]; 500 CFU per milliliter
  Time to color change: ≤ 15 s
[1]; hydroxypropyl-beta-cyclodextrin coated towel
  Bacteria concentration down to which color change occurred: 500 CFU per milliliter
[2]
  Amount of Dye Required for Persistent Color: 110 µL
